row,melting point [°C],SMILES
1,162 to 163,"CCOCc1nc2c(N)nc3cc(/C=C/C(=O)OC)ccc3c2n1CCCCN1CCCS1(=O)=O [Example 9, Methyl(2E)-3-[4-amino-1-[4-(1,1-dioxidoisothiazolidin-2-yl)butyl]-2-(ethoxymethyl)-1H-imidazo[4,5-c]quinolin-7-yl]prop-2-enoate]"
2,166.5 to 167.5,"CCOCc1nc2c(N)nc3cc(S(C)(=O)=O)ccc3c2n1CCCOC [Example 7, 2-Ethoxymethyl-1-(3-methoxypropyl)-7-methylsulfonyl-1H-imidazo[4,5-c]quinolin-4-amine]"
3,228 to 230,"COCc1nc2c(N)nc3cc(CCC(N)=O)ccc3c2n1CC(C)(C)O [Example 113, 3-[4-Amino-1-(2-hydroxy-2-methylpropyl)-2-(methoxymethyl)-1H-imidazo[4,5-c]quinolin-7-yl]propanamide]"
4,134.5 to 135.5,"CCCNC(=O)NCCCCc1ccc2c(c1)nc(N)c1nc(COCC)n(CCCOC(C)C)c12 [Example 6, N-{4-[4-Amino-2-ethoxymethyl-1-(3-isopropxypropyl)-1H-imidazo[4,5-c]quinolin-7-yl]butyl}-N′-propylurea]"
5,188.5 to 190,"CCOCc1nc2c(N)nc3cc(/C=C/S(=O)(=O)c4ccccc4)ccc3c2n1CCCOC(C)C [Example 2, 2-Ethoxymethyl-1-(3-isopropoxypropyl)-7-[(E)-2-(phenylsulfonyl)ethenyl]-1H-imidazo[4,5-c]quinolin-4-amine]"
6,217 to 218,"CC(C)(O)Cn1cnc2c(N)nc3cc(CCC(=O)N4CCOCC4)ccc3c21 [Example 97, 3-[4-Amino-1-(2-hydroxy-2-methylpropyl)-1H-imidazo[4,5-c]quinolin-7-yl]-1-(morpholin-4-yl)propan-1-one]"
7,209 to 210,"CCOC(=O)/C=C/c1ccc2c(c1)nc(N)c1nc(CC)n(CC3CCOCC3)c12 [Example 131, Ethyl (2E)-3-[4-amino-2-ethyl-1-(tetrahydro-2H-pyran-4-ylmethyl)-1H-imidazo[4,5-c]quinolin-7-yl]prop-2-enoate]"
8,210 to 212,"CCc1nc2c(N)nc3cc(CCC(=O)N4CCSC4)ccc3c2n1CC(C)(C)O [Example 103, 1-{4-Amino-2-ethyl-7-[3-oxo-3-(1,3-thiazolidin-3-yl)propyl]-1H-imidazo[4,5-c]quinolin-1-yl}-2-methylpropan-2-ol]"
9,219 to 220,"CCc1nc2c(N)nc3cc(CCC(=O)N(C)C)ccc3c2n1CC1CCOCC1 [Example 129, 3-[4-Amino-2-ethyl-1-(tetrahydro-2H-pyran-4-ylmethyl)-1H-imidazo[4,5-c]quinolin-7-yl]-N,N-dimethylpropanamide]"
10,205 to 207,"COCc1nc2c(N)nc3cc(CCCNS(C)(=O)=O)ccc3c2n1CC(C)(C)O [Example 109, N-{3-[4-Amino-1-(2-hydroxy-2-methylpropyl)-2-(methoxymethyl)-1H-imidazo[4,5-c]quinolin-7-yl]propyl}methanesulfonamide]"
11,149 to 152,"CCc1nc2c(N)nc3cc(CCNS(C)(=O)=O)ccc3c2n1CC(C)(C)O [Example 118, N-{2-[4-Amino-2-ethyl-1-(2-hydroxy-2-methylpropyl)-1H-imidazo[4,5-c]quinolin-7-yl]ethyl}methanesulfonamide]"
12,234 to 237,"CCc1nc2c(N)nc3cc(CCC(=O)N(C)C)ccc3c2n1CC(C)(C)O [Example 100, 3-[4-Amino-2-ethyl-1-(2-hydroxy-2-methylpropyl)-1H-imidazo[4,5-c]quinolin-7-yl]-N,N-dimethylpropanamide]"
13,237 to 239,"CCc1nc2c(N)nc3cc(CCC(=O)N4CCOCC4)ccc3c2n1CC(C)(C)O [Example 98, 3-[4-Amino-2-ethyl-1-(2-hydroxy-2-methylpropyl)-1H-imidazo[4,5-c]quinolin-7-yl]-1-(morpholin-4-yl)propan-1-one]"
14,217 to 220,"CCc1nc2c(N)nc3cc(CCCN)ccc3c2n1CC1CCOCC1 [Example 123, 7-(3-Aminopropyl)-2-ethyl-1-(tetrahydro-2H-pyran-4-ylmethyl)-1H-imidazo[4,5-c]quinolin-4-amine]"
15,269 to 271,CC(C)(O)Cn1cnc2c(N)nc3cc(CCS(C)(=O)=O)ccc3c21 [Example 99]
16,209 to 211,"CCc1nc2c(N)nc3cc(CCCNC(C)=O)ccc3c2n1CC1CCOCC1 [Example 125, N-{3-[4-amino-2-ethyl-1-(tetrahydro-2H-pyran-4-ylmethyl)-1H-imidazo[4,5-c]quinolin-7-yl]propyl}acetamide]"
17,228 to 230,"CN(C)C(=O)CCc1ccc2c(c1)nc(N)c1nc(CO)n(CC(C)(C)O)c12 [Example 111, 3-[4-Amino-2-(hydroxymethyl)-1-(2-hydroxy-2-methylpropyl)-1H-imidazo[4,5-c]quinolin-7-yl]-N,N-dimethylpropanamide]"
18,238 to 240,"CCc1nc2c(N)nc3cc(/C=C/C(=O)OC)ccc3c2n1CC(C)(C)O [Example 17, Methyl(2E)-3-[4-amino-2-ethyl-1-(2-hydroxy-2-methylpropyl)-1H-imidazo[4,5-c]quinolin-7-yl]prop-2-enoate]"
19,132 to 133,"CCOCc1nc2c(N)nc3cc(CCCN4CCOCC4)ccc3c2n1CC(C)(C)O [Example 135, 1-[4-Amino-2-(ethoxymethyl)-7-(3-morpholin-4-ylpropyl)-1H-imidazo[4,5-c]quinolin-1-yl]-2-methylpropan-2-ol]"
20,221 to 223,"CC(C)(O)Cn1c(CO)nc2c(N)nc3cc(CCS(C)(=O)=O)ccc3c21 [Example 105, 1-{4-Amino-2-(hydroxymethyl)-7-[2-(methylsulfonyl)ethyl]-1H-imidazo[4,5-c]quinolin-1-yl}-2-methylpropan-2-ol]"
21,> 260,"CCc1nc2c(N)nc3cc(/C=C/C(=O)N4CCOCC4)ccc3c2n1CC1CCOCC1 [Example 130, 2-Ethyl-7-[(1E)-3-morpholin-4-yl-3-oxoprop-1-enyl]-1-(tetrahydro-2H-pyran-4-ylmethyl)-1H-imidazo[4,5-c]quinolin-4-amine]"
22,168 to 170,"COCCc1nc2c(N)nc3ccc(CCC(=O)N4CCOCC4)cc3c2n1CCCN1CCCC1=O [Example 101, 1-{3-[4-Amino-2-(2-methoxyethyl)-8-(3-morpholin-4-yl-3-oxo-propyl)-1H-imidazo[4,5-c]quinolin-1-yl]propyl}pyrrolidin-2-one]"
23,191 to 193,"COCc1nc2c(N)nc3cc(CCC#N)ccc3c2n1CC(C)(C)O [Example 110, 3-[4-Amino-1-(2-hydroxy-2-methylpropyl)-2-(methoxymethyl)-1H-imidazo[4,5-c]quinolin-7-yl]propanenitrile]"
24,197 to 199,"CCc1nc2c(N)nc3cc(CCC(N)=O)ccc3c2n1CC1CCOCC1 [Example 122, 3-[4-Amino-2-ethyl-1-(tetrahydro-2H-pyran-4-ylmethyl)-1H-imidazo[4,5-c]quinolin-7-yl]propanamide]"
25,246.5 to 249,CCc1nc2c(N)nc3cc(CCS(C)(=O)=O)ccc3c2n1CC1CCOCC1 [Example 120]
26,201 to 205,"COC(=O)CCc1ccc2c(c1)nc(N)c1ncn(CC(C)(C)O)c12 [Example 16, Methyl 3-[4-amino-1-(2-hydroxy-2-methylpropyl)-1H-imidazo[4,5-c]quinolin-7-yl]propanoate]"
